Assays:
[1] = test system: recombinant human lecithin cholesterol acyltransferase (LCAT); test: LCAT activity assay (DHE esterification in DMPC/DHE/peptide nanodiscs); assay type: biochemical; details: relative to 22A, 30 min; for LCAT activity (in words): pH 7.4, 37 °C, fluorescence
Text: (§1) ApoA-I mimetic peptides 22A ([…]), 22A-K22Q ([…]), and 22A-R7Q ([…]) were obtained from Peptide Protein Research Ltd. (Fareham, UK). 1,2-Dimyristoyl-sn-glycerol-3-phosphocholine (DMPC), 1,2-dipalmitoyl-sn-glycerol-3-phosphocholine (DPPC), and ergosta-5,7,9,(11),22-tetra-3beta-ol (dehydroergosterol, DHE) were purchased from Avanti Polar Lipids Inc. (Alabaster, AL). Recombinant human lecithin cholesterol acyltransferase (LCAT) was synthesized by ProSpec-Tany TechnoGene Ltd. (East Brunswick, NJ). Cholesterol oxidase (COx) was obtained from Sigma-Aldrich (St. Louis, MO).
The LCAT activity assay relies on the integration of DHE in the nanodisc structure as a substrate for LCAT. DHE is a naturally occurring fluorescent sterol analog; the presence of three conjugated double bonds in the steroid ring system gives this probe a slight fluorescence in the near-UV region of the spectrum.[42] As a consequence of the acyltransferase activity of LCAT, DHE in the PL bilayer is stored in the inner core of sHDL as DHE-ester. The esterification of DHE causes a shift in the sterol analog emission wavelength from 372 to 425 nm; this shift, together with the use of COx, which selectively renders the unesterified DHE nonfluorescent, allows the exclusive detection and quantification of the DHE-ester. This provides information about the LCAT–sHDL interaction and activity.[43],[44] sHDL containing the fluorescent sterol DHE for LCAT activity assay was prepared via thermal cycling method. In a glass vial, DMPC and DHE in chloroform were combined at a 9:1 molar ratio and were first dried with Rotavapor R-200 at room temperature for 1–2 h and then an additional 1 h under nitrogen flow at room temperature. […] After this, the plates went through a second round of incubation at 37 °C with gentle shaking (250 rpm/h) for 1 h to extinguish the fluorescence of unesterified DHE. After re-equilibrating the plate at room temperature, DHE fluorescence was detected at an excitation wavelength of 325 nm and an emission wavelength of 425 nm using Varioskan LUX (Thermo Scientific, Waltham, MA). […]

[2] = test system: LCAT; test: QCM: LCAT binding to peptide-lipid nanodiscs on sensor; design: species or system human; details: for adsorption of LCAT on the discs (in words): 10 nM LCAT in PBS, 20 °C, versus 22A; for estimated number of LCAT enzymes bound per disc: calculated from adsorbed mass after LCAT injection (10 nM LCAT in PBS, 75 μL/min, 17 min, 20 °C), DMPC nanodiscs, three measurements
Text: as §1
Before QCM measurements, the LCAT stock solution was prepared by dissolving 10 μg of LCAT in 500 μL of PBS. The solution was centrifuged (14 000g) twice through Amicon Ultra-0.5, 10 kDa cutoff filter (Sigma-Aldrich) for buffer exchange and purification. The retentate was diluted to a total volume of 500 μL (PBS) after each step. Prepared 20 μg/mL (∼430 nM) LCAT solution was stored in −20 °C before further use.
(§2) Impedance-based QCM instrument QCM-Z500 (KSV Instruments Ltd., Helsinki, Finland) was used for the measurements. The temperature was kept constant at 20 °C. Before measurements, silica-coated sensors (Q-Sense Inc./Biolin Scientific, Västra Frölunda, Sweden) were flushed with 70% (v/v) ethanol and ultrapure water, dried under nitrogen flow, and oxygen-plasma-treated (PDC-002; Harrick Plasma, Ithaca, NY) for 5 min at 29.6 W and 133–173 Pa. Samples were injected into the flow channel using a peristaltic pump system. After the baseline of the signal at different frequency overtones (3, 5, and 7) was stabilized in PBS, a nanodisc surface was formed by flowing nanodisc solution (0.15 mg/mL in PBS, 150 μL/min) on the sensor for 5 min, until the signal was again stabilized. Flow speed was then decreased to 75 μL/min for 5 min of flow with PBS to ensure a solid, uniform nanodisc surface. Next, 10 nM (0.47 μg/mL) LCAT was then injected through the flow channel at 75 μL/min for 17 min. Then, the running solution was again changed to PBS to see the frequency signal stabilize. All measurements were performed three times; between measurements, the sensor and the flow channel were cleaned in situ by 3 min sequential injections of 20 mM CHAPS, 2% (v/v) Hellmanex, 70% (v/v) ethanol, and ultrapure water at 150 μL/min. Frequency overtone signals were normalized, baseline corrected, and averaged for each measurement.

[3] = QCM: adsorption of nanodiscs on silica sensor; assay type: physicochemical; details: nanodiscs 0.15 mg/mL in PBS, 150 μL/min, 5 min, 20 °C, versus 22A
Method: as §2, with “Frequency overtone signals were normalized, baseline corrected, and averaged for each measurement.” left out

[4] = test system: LCAT; details: cited from earlier work
Text: Therefore, this has long been a sought-after property of synthetic HDL-mimetic nanodiscs and apoA-I mimetic peptides. The nativelike maturation of the nanodiscs by lecithin–cholesterol acyltransferase (LCAT) has been regarded as a desired feature as it would lead to the esterification of free CHOL and the formation of hydrophobic cholesteryl ester (CE)-rich core. […] The ... || To investigate the location, conformation, and dynamics of apoA-Imimetic peptides in nanodiscs in silico, we complexed coarse-grained models of DMPC lipids with models of apoA-Imimetic peptides 22A and 22A-K and simulated the systems up to 80 μs, measured in the effective Martini force field time. To prepare the systems, 200 lipids and 28 peptides were placed randomly into the simulation box, and after a short vacuum simulation to compress them, the systems were solvated. Equilibrated nanodiscs formed rapidly after starting the production runs. The proteolytic removal of C-terminal lysine of 2 ... || (+ 2 further places)

[5] = test system: LCAT; details: cited from earlier work; remark: listed apart in the source
Text: The ... || The formation of acyl intermediate of LCAT requiring the entry of PCs into the active site is another important factor in LCAT activity. […] We have also ...

Sequence | decrease of LCAT activity ([1]; lipid:peptide 2:1 w/w, DHE 0-35 μM, LCAT 7 μg/mL, PBS + 1 mM EDTA + 60 μM albumin pH 7.4, 37 °C, fluorescence 325/425 nm, triplicate, two independent experiments) [%] | LCAT activity (in words) [1] | adsorption of LCAT on the discs (in words) [2] | estimated number of LCAT enzymes bound per disc [2] | adsorption of nanodiscs on the sensor (in words) [3] | LCAT activation (in words) ([4]; versus native apoA-I) | decrease of CHOL esterification on removal of K22 ([4]; 22A without C-terminal K22 versus 22A) [%] | LCAT activation on removal of C-terminal lysine (in words) ([4]; proteolytic removal in serum) | effect on phospholipolytic action of LCAT on removal of K22 (in words) [5]
PVLDLFRELLNELLEALKQKLQ [22A-K22Q, 22A variant with charge neutralization of residue K22] | 50 | decreased the LCAT activation potency | reduced the adsorption of LCAT on the discs | one LCAT was attached to every five nanodiscs | decreased adsorption of nanodiscs on the sensor |  |  |  | 
PVLDLFQELLNELLEALKQKLK [22A-R7Q, 22A variant with charge neutralization of residue R7] |  | nearly identical activity with 22A | reduced the adsorption of LCAT on the discs | one LCAT was attached to every five nanodiscs | decreased adsorption of nanodiscs on the sensor |  |  |  | 
PVLDLFRELLNELLEALKQKLK [22A, apoA-I mimetic peptide 22A (Esperion Therapeutics, ESP24218)] |  |  |  | approximately one LCAT was bound to every two nanodiscs |  | activate LCAT nearly as well as native apoA-I |  |  | 
PVLDLFRELLNELLEALKQKL [22A-K, 22A without C-terminal lysine K22] |  |  |  |  |  |  | ~60 | significantly reduces LCAT activation | no effect on phospholipolytic action mediated by LCAT

Source: article PMC9644404, “Mechanistic Insights into the Activation of Lecithin–Cholesterol Acyltransferase in Therapeutic Nanodiscs Composed of Apolipoprotein A-I Mimetic Peptides and Phospholipids” (Molecular Pharmaceutics, 2022)
